Data taken from US11072598B2, “Somatostatin modulators and uses thereof” (CRINETICS PHARMACEUTICALS, INC., priority 2017, dated 2021).
pEC50, pIC50: −log10 of the molar value. Where two headings read alike, the source gives them in different places.

How the values were obtained:
hERG ion channel = target: T1, hERG ion channel (Homo sapiens, UniProt Q12809); assay: hERG fluorescence polarization assay (Predictor kit); assay type: binding; conditions: tracer displacement, membrane fractions; read-out: hERG inh.
T1 construct: purchased ThermoFisher Scientific PV5365
Protocol: On the day of the assay, various dilutions of test articles of the invention are prepared in assay buffer (Predictor™ hERG Fluorescence Polarization Assay Kit, ThermoFisher Scientific #PV5365) and dilutions are added to membranes fractions that contain the functional hERG ion channel (supplied by the kit). […] Under normal conditions, the tracer binds to the hERG channel and the fluorecence polarization measured is high. […] The concentration of free tracer is measured via fluorescence polarization using parameters prescribed in the kit with a Tecan M1000Pro multiplate reader. […] The fluorescence polarization is plotted versus test article concentration and an IC50 for hERG inhibition is calculated using standard methods. All data manipluations are in GraphPad Prism v6.

hSSTR4 = target: T2, hSSTR4 (Homo sapiens, UniProt P31391); assay: inhibition of cAMP via hSSTR4; assay type: cell-based; conditions: for pEC50: cAMP inhibition, Table C, read-out: hSST4 (EC50); for hSST4/hSST2 (ratio): selectivity for inhibition of cAMP via hSSTR2 vs. hSSTR4
T2 construct: expressed in transfected cells
Text: General overview: All five SSTR subtypes are Gi coupled G-protein coupled receptors (GPCRs) that lead to decreases in intracellular cyclic AMP (cAMP) when activated by an agonist. Therefore, measurement of intracellular cAMP levels can be used to assess whether compounds of the invention are agonists of SSTR subtypes (John Kelly, Troy Stevens, W. Joseph Thompson, and Roland Seifert, Current Protocols in Pharmacology, 2005, 2.2.1-2.2). One example of an intracellular cAMP assay is described below. cAMP assay protocol:
Four days prior to the assay, 5,000 Chinese hamster ovary cells (CHO-K1, ATCC #CCL-61) stably expressing the human somatostatin receptor subtype 2 are plated in each well of a 96-well tissue culture-treated plate in Ham's F12 growth media (ThermoFisher #10-080-CM) supplemented with 10% donor bovine serum (Gemini Bio-Products #100-506), 100 U/mL penicillin; 100 ug/mL streptomycin; 2 mM L-glutamine (Gemini Bio-Products #400-110) and 0.2 mg/mL hygromycin B (GoldBio #31282-04-9). The cells are cultured at 37° C., 5% CO2 and 95% humidity. On the day of the assay, the media is aspirated and the cells are treated with 50 μL of 1.6 μM NKH477 (Sigma #N3290) plus various dilutions of compounds of the invention in assay buffer [1× Hank's Balanced Salt Solution (ThermoFisher #SH3058802), 0.5 mM HEPES pH 7.4, 0.1% bovine serum albumin, 0.2 mM 3-Isobutyl-1-methylxanthine (IBMX, VWR #200002-790)]. The cells are incubated for 20 minutes at 37° C. (the final concentration of the compounds of the invention are typically 0-10,000 nM). The cells are treated with 50 μL of lysis buffer (HRTF cAMP kit, Cisbio). The lysate is transferred to 384-well plates and cAMP detection and visualization antibodies are added and incubated for 1-24 hours at room temperature. The time-resolved fluorescent signal is read with a Tecan M1000Pro multiplate reader. The intracellular cAMP concentrations are calculated by regression to a standard curve and are plotted vs. the concentration of the compounds of the invention and the EC50 of the compounds are calculated using standard methods. All data manipluations are in GraphPad Prism v6.

human CYP2D6 isozyme = target: T3, human CYP2D6 isozyme (Homo sapiens, UniProt P10635); assay: CYP2D6 assay (Vivid CYP2D6 Blue Screening Kit); assay type: in vitro ADME; conditions: CYP450 microsomes, fluorogenic substrate; read-out: CYP2D6 inh.
T3 construct: purchased ThermoFisher Scientific P2972
Protocol: On the day of the assay, various dilutions of test articles of the invention are prepared in assay buffer (Vivid® CYP2D6 Blue Screening Kit, ThermoFisher Scientific #P2972) and dilutions are added to a preparation of CYP450 microsomes expressing the functional human CYP2D6 isozyme (supplied by the kit) and incubated for 15 minutes at 37° C. to allow interactions between the test article of invention and the enzyme in the absence of enzyme turnover. The enzymatic reaction is initiated by addition of the NADPH co-factor in the precense of the fluorogenic substrate. Under normal conditions, this substrate (which is not fluorescent) is cleaved by active CYP2D6 to produce a a fluorescent product. When in the presence of test article, the lack of appearance of the fluorescent product is evidence of inhibition of the CYP2D6 enzyme by the test article. The enzymatic reaction is allowed to proceed for 30 minutes at […] and then terminated by the addition of 0.5 M Tris pH 10.8. The concentration of fluorescent cleavage product is measured using spectroscopic parameters prescribed in the kit with a Tecan M1000Pro multiplate reader. The percent inhibition is calculated based on the fluorescence intensity observed in the presence of the positive control inhibitor, quinidine (Sigma #Q3625), included in each assay. The percent inhibition is plotted versus test article concentration and an IC50 for CYP2D6 inhibition is calculated using standard methods. All data manipluations are in GraphPad Prism v6.

[1] = target: T4, human somatostatin receptor subtype 2 (Homo sapiens, UniProt P30874); assay: cAMP functional assay for SSTR2 agonists; assay type: cell-based
T4 construct: expressed in transfected cells
In short: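 CHO-K1 cells stably expressing human SSTR2 were treated for 20 min at 37 °C with compound plus NKH477 (added as 1.6 μM) in HBSS with IBMX. Intracellular cAMP was measured by HTRF against a standard curve. EC50 values came from concentration-response curves.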

[2] = cAMP inhibition, Table C, read-out: hSST2 (EC50)
[3] = inhibition of cAMP activities via human SST2 receptor (SSTR2), CHO-K1 cells, read-out: EC50

T2 sequence (P31391 whole entry): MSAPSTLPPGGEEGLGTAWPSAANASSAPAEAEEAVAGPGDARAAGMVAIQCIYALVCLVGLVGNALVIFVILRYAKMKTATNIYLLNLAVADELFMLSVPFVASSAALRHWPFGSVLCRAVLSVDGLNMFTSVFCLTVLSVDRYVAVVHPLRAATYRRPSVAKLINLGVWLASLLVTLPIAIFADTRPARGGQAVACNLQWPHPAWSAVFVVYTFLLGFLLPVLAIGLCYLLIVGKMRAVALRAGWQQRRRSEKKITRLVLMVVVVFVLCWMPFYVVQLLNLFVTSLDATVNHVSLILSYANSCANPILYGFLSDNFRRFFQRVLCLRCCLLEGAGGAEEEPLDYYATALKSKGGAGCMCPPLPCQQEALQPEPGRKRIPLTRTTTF
T4 sequence (P30874 whole entry): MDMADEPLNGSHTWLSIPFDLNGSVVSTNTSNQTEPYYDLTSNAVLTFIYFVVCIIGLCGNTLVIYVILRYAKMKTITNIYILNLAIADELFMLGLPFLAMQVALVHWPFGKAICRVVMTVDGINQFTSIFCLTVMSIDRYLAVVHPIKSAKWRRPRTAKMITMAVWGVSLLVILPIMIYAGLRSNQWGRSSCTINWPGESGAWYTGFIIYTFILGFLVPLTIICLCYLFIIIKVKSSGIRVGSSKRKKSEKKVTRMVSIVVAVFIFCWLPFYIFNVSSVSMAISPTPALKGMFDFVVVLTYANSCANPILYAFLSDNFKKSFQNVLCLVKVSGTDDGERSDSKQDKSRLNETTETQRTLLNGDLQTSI
T1 sequence (Q12809 whole entry): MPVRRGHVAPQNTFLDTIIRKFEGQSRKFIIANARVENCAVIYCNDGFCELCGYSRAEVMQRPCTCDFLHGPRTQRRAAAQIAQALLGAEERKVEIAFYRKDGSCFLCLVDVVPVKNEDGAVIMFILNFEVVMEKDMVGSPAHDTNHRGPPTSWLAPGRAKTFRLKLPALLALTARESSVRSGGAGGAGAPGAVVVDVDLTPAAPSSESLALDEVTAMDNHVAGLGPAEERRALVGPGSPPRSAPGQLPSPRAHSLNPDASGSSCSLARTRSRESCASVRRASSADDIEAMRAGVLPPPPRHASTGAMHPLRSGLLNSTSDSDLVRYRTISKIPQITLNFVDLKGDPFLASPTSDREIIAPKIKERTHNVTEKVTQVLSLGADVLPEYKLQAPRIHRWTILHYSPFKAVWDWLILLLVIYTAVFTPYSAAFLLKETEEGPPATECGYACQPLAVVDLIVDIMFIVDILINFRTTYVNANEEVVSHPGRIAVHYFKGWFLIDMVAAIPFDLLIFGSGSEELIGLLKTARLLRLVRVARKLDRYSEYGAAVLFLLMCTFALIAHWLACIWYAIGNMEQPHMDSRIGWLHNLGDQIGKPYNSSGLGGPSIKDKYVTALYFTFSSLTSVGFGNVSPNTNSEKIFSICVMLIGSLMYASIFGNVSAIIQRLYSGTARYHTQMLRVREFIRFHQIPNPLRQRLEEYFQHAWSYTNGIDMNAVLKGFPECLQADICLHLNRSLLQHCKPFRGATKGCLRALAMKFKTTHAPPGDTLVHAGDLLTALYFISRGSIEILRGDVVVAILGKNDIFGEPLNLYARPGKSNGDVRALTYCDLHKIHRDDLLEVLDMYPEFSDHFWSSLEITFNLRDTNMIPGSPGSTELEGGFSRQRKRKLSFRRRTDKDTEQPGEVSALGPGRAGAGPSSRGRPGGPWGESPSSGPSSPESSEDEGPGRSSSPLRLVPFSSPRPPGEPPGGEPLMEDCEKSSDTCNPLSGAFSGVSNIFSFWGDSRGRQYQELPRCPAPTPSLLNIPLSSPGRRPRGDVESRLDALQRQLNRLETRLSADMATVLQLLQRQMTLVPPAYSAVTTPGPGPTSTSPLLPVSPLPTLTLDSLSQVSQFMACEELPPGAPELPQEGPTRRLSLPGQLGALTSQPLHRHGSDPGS
T3 sequence (P10635 whole entry): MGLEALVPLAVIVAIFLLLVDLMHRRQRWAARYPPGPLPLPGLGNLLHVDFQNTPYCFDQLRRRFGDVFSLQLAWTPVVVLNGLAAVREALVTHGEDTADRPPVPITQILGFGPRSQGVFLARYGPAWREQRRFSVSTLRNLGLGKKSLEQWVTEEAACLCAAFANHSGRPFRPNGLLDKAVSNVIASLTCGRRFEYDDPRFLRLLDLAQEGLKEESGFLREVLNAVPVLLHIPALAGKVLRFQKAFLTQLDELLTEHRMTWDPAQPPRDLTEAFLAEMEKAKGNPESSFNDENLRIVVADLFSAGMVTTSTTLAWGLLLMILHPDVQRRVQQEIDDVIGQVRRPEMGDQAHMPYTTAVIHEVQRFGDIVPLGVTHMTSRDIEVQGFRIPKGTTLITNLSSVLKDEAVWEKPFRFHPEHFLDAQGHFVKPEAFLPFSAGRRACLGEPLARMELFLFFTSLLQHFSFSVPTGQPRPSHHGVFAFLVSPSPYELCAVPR

Cc1cc(F)cc(-c2cnc(N)c(-c3nc4cc(F)ccc4[nH]3)c2N2CCC(N)CC2)c1 [Compound 1-6, 4-(4-aminopiperidin-1-yl)-3-(5-fluoro-1H-1,3-benzodiazol-2-yl)-5-(3-fluoro-5-methylphenyl)pyridin-2-amine]
pIC50 (hERG ion channel): < 5.30 | pEC50 (hSSTR4): 9.04 | hSST4/hSST2 (ratio) (hSSTR4): b (between 15 and 50) | pIC50 (human CYP2D6 isozyme): < 5.30 | pEC50 [1, 2]: 10.22 | pEC50 [1, 3]: > 8.00

Cc1cc(F)cc(-c2cncc(-c3nc4cc(F)ccc4[nH]3)c2N2CCC(N)CC2)c1 [R^1=H, R^5=H, R^6=5-F, R^7=H, reference compound]
pEC50 (hSSTR4): 9.92 | pIC50 (human CYP2D6 isozyme): > 5.30

Cc1cc(F)cc(-c2cncc(-c3nc4cc(C#N)ccc4[nH]3)c2N2CCC(N)CC2)c1 [R^1=H, R^5=H, R^6=5-CN, R^7=H, reference compound]
pIC50 (hERG ion channel): > 5.30 | pEC50 (hSSTR4): 8.92 | hSST4/hSST2 (ratio) (hSSTR4): c (between 2.5 and 15) | pIC50 (human CYP2D6 isozyme): < 5.30 | pEC50 [1, 2]: 9.89

Cc1cc(F)cc(-c2cnc(N)c(-c3nc4cccc(F)c4[nH]3)c2N2CCC(N)CC2)c1 [Compound 1-11, 4-(4-aminopiperidin-1-yl)-3-(7-fluoro-1H-1,3-benzodiazol-2-yl)-5-(3-fluoro-5-methylphenyl)pyridin-2-amine]
pIC50 (hERG ion channel): < 5.30 | pEC50 (hSSTR4): 9.15 | hSST4/hSST2 (ratio) (hSSTR4): c (between 2.5 and 15) | pIC50 (human CYP2D6 isozyme): < 5.30 | pEC50 [1, 2]: 9.57 | pEC50 [1, 3]: > 8.00

CNc1ncc(-c2cc(C)cc(F)c2)c(N2CCC(N)CC2)c1-c1nc2cc(F)cc(F)c2[nH]1 [Compound 1-48, 4-(4-aminopiperidin-1-yl)-3-(5,7-difluoro-1H-1,3-benzodiazol-2-yl)-5-(3-fluoro-5-methylphenyl)-N-methylpyridin-2-amine]
pIC50 (hERG ion channel): < 5.30 | pEC50 (hSSTR4): 7.82 | hSST4/hSST2 (ratio) (hSSTR4): a (above 50) | pIC50 (human CYP2D6 isozyme): < 5.30 | pEC50 [1, 2]: 9.74 | pEC50 [1, 3]: > 8.00

Cc1cc(F)cc(-c2cnc(N)c(-c3nc4cc(F)cc(F)c4[nH]3)c2N2CCC(N)CC2)c1 [Compound 1-2, 4-(4-aminopiperidin-1-yl)-3-(5,7-difluoro-1H-1,3-benzodiazol-2-yl)-5-(3-fluoro-5-methylphenyl)pyridin-2-amine]
pIC50 (hERG ion channel): < 5.30 | pEC50 (hSSTR4): 8.89 | hSST4/hSST2 (ratio) (hSSTR4): b (between 15 and 50) | pIC50 (human CYP2D6 isozyme): < 5.30 | pEC50 [1, 2]: 10.30 | pEC50 [1, 3]: > 8.00

Cc1cc(F)cc(-c2cnc(N)c(-c3nc4cc(Cl)ccc4[nH]3)c2N2CCC(N)CC2)c1 [Compound 1-1, 4-(4-aminopiperidin-1-yl)-3-(5-chloro-1H-1,3-benzodiazol-2-yl)-5-(3-fluoro-5-methylphenyl)pyridin-2-amine]
pIC50 (hERG ion channel): < 5.30 | pEC50 (hSSTR4): 9.15 | hSST4/hSST2 (ratio) (hSSTR4): b (between 15 and 50) | pIC50 (human CYP2D6 isozyme): < 5.30 | pEC50 [1, 2]: 10.52 | pEC50 [1, 3]: > 8.00

Cc1cc(F)cc(-c2cnc(N)c(-c3nc4cc(C#N)ccc4[nH]3)c2N2CCC(N)CC2)c1 [Compound 1-12, 2-[2-amino-4-(4-aminopiperidin-1-yl)-5-(3-fluoro-5-methylphenyl)pyridin-3-yl]-1H-1,3-benzodiazole-5-carbonitrile]
pIC50 (hERG ion channel): < 5.30 | pEC50 (hSSTR4): 7.85 | hSST4/hSST2 (ratio) (hSSTR4): a (above 50) | pIC50 (human CYP2D6 isozyme): < 5.30 | pEC50 [1, 2]: 10.22 | pEC50 [1, 3]: > 8.00

COc1ccc2[nH]c(-c3c(N)ncc(-c4cc(C)cc(F)c4)c3N3CCC(N)CC3)nc2c1 [Compound 1-8, 4-(4-aminopiperidin-1-yl)-5-(3-fluoro-5-methylphenyl)-3-(5-methoxy-1H-1,3-benzodiazol-2-yl)pyridin-2-amine]
hSST4/hSST2 (ratio) (hSSTR4): b (between 15 and 50) | pEC50 [1, 3]: > 8.00

COc1cc(F)c2nc(-c3c(N)ncc(-c4cc(C)cc(F)c4)c3N3CCC(N)CC3)[nH]c2c1 [Compound 1-59, 4-(4-aminopiperidin-1-yl)-5-(3-fluoro-5-methylphenyl)-3-(4-fluoro-6-methoxy-1H-1,3-benzodiazol-2-yl)pyridin-2-amine]
hSST4/hSST2 (ratio) (hSSTR4): b (between 15 and 50) | pEC50 [1, 3]: > 8.00

Cc1cc(F)cc(-c2cncc(-c3nc4cccc(F)c4[nH]3)c2N2CCC(N)CC2)c1 [R^1=H, R^5=H, R^6=H, R^7=7-F, reference compound]
pIC50 (hERG ion channel): < 5.30 | pEC50 (hSSTR4): 10.05 | hSST4/hSST2 (ratio) (hSSTR4): e (below 1) | pIC50 (human CYP2D6 isozyme): > 5.30 | pEC50 [1, 2]: 9.37

CNc1ncc(-c2cc(C)cc(F)c2)c(N2CCC(N)CC2)c1-c1nc2cc(Cl)cc(F)c2[nH]1 [Compound 1-75, 4-(4-aminopiperidin-1-yl)-3-(5-chloro-7-fluoro-1H-1,3-benzodiazol-2-yl)-5-(3-fluoro-5-methylphenyl)-N-methylpyridin-2-amine]
hSST4/hSST2 (ratio) (hSSTR4): a (above 50) | pEC50 [1, 3]: > 8.00

Cc1cc(F)cc(-c2cnc(N)c(-c3nc4cc(Cl)cc(F)c4[nH]3)c2N2CCC(N)CC2)c1 [Compound 1-54, 4-(4-aminopiperidin-1-yl)-3-(5-chloro-7-fluoro-1H-1,3-benzodiazol-2-yl)-5-(3-fluoro-5-methylphenyl)pyridin-2-amine]
hSST4/hSST2 (ratio) (hSSTR4): a (above 50) | pEC50 [1, 3]: > 8.00

CCNc1ncc(-c2cc(C)cc(F)c2)c(N2CCC(N)CC2)c1-c1nc2cc(F)c(F)cc2[nH]1 [Compound 1-50, 4-(4-aminopiperidin-1-yl)-3-(5,6-difluoro-1H-1,3-benzodiazol-2-yl)-N-ethyl-5-(3-fluoro-5-methylphenyl)pyridin-2-amine]
hSST4/hSST2 (ratio) (hSSTR4): a (above 50) | pEC50 [1, 3]: > 8.00

Cc1cc(F)cc(-c2cnc(N)c(-c3nc4cc(OC(F)(F)F)ccc4[nH]3)c2N2CCC(N)CC2)c1 [Compound 1-14, 4-(4-aminopiperidin-1-yl)-5-(3-fluoro-5-methylphenyl)-3-[5-(trifluoromethoxy)-1H-1,3-benzodiazol-2-yl]pyridin-2-amine]
hSST4/hSST2 (ratio) (hSSTR4): a (above 50) | pEC50 [1, 3]: > 8.00
